Measured values as given in article PMC9605737, “Identification of 6ω-cyclohexyl-2-(phenylamino carbonylmethylthio)pyrimidin-4(3H)-ones targeting the ZIKV NS5 RNA dependent RNA polymerase” (Frontiers in Chemistry, 2022).

Assays:
ZIKV NS5 protein [1] = biological target: T1, ZIKV NS5 protein (Zika virus, UniProt A0A024B7W1); experiment: Cell thermal shift assay (CETSA) with WB detection; assay type: binding; conditions: 50 μM, lysate of ZIKV-infected Vero cells, 60 min; DMSO control 42.3°C
T1 construct: endogenous in cells; host or cells: Vero cells infected with ZIKV
Description: Cell thermal shift assay (CETSA) experiments are often used to detect the binding of intracellular drugs to target proteins. The assay was based on the principle of ligand-induced changes in protein thermal stability. The stability of the protein is evaluated by comparing the melting curves between the control group and the experimental group, thus assessing the interaction of the compound with the target protein.
Therefore, in order to further verify the interaction between 4w and ZIKV NS5, ZIKV-infected cell were treated with 4w (at 50 μM concentration), then total protein was incubation for 60 min at room temperature, and it was divided into nine equal parts. The same volume of DMSO was added as a control, and the treated protein was heated in a temperature gradient and then detected ZIKV NS5 protein by WB assay (Figure 5A).
Vero cells were inoculated in a 10 cm cell culture dish and cultured overnight, and after infection with ZIKV (MOI ≈2), maintenance medium was added to continue culturing for 3 days. Detergent-free protein lysis buffer (25 mM HEPES, 20 mM MgCl2, 2 mM DTT) was added, and cells were lysed by sonication. […] The supernatants were collected to prepare the samples, and the binding of 4w and ZIKV NS5 protein was analyzed by Western blotting ([Chen et al., 2020]; [Chen et al., 2021]).

ZIKV RNA = experiment: qRT-PCR viral load in supernatant of ZIKV-infected A549 cells; assay type: cell-based; conditions: Zika virus, A549, read-out: EC50, inhibition of ZIKV RNA replication
From the text: In order to re-verify the inhibitory effect of 4w on ZIKV at the molecular level, we used ZIKV to infect cell lines of different origins (A549, Vero, Huh7 cells) and then treated with 4w in a concentration gradient. The change of viral load in the supernatant of cells after treatment was detected by qRT-PCR method.
Cells were infected with ZIKV SZ-WIV01 and then treated with 4w. The viral load in the supernatant was detected by Quantitative real-time polymerase chain reaction (qRT-PCR) at in different time periods after infection. Then the RNA from culture supernatant was extracted using the EasyPure ® Viral DNA/RNA Kit (TransGen Biotech, China) following the manufacturer’s instructions. Intracellular RNA extraction was according to trizol method. A one-step qRT-PCR kit RNA-direct™ Realtime PCR Master Mix (TOYOBO, Japan) and TaqMan probe were used to quantify the viral RNA produced. The primers (NS5 ZIKV 1086F: 5′-CCGCTGCCCAACACAAG-3′ and NS5 ZIKV 1086R: 3′-[…] C-5′) and probe (5′-FAM-[…]-TAMRA -3′) were used for amplification of the ZIKV NS5 region. A standard curve of the serial dilutions was used to quantify the viral RNA yield.
The 50% effective concentration (EC50) and 50% cytotoxic concentration (CC50) of the compound were calculated according to the Reed and Muench method, inhibition rate of ZIKV RNA yield- [(1-drug treatment/positive control) × 100]. […]

ZIKV E protein [2] = experiment: Western blot of ZIKV E protein in infected Vero cells; assay type: cell-based, Zika virus; conditions: 12.5 μM, 48 h
From the text: (§1) ZIKV E protein is one of the most important structural proteins of ZIKV, which plays an important role in the correct assembly of the virus and evasion of the host’s innate immunity ([Jaimipuk et al., 2022]). We have verified that 4w has a significant inhibitory effect on ZIKV-infected cell lines from different sources at the molecular level, but it is unknown whether it has the same antiviral effect at the protein level. Therefore, in order to explore the inhibitory effect of 4w on ZIKV protein level, we added serially diluted 4w to ZIKV-infected Vero cells for 48 h, collected the total protein for WB experiments, and then detected the effect of 4w on ZIKV E and NS5 protein. At the same time, the inhibitory effect of 4w on ZIKV E protein was verified again by immunofluorescence experiment.
(§2) Vero cells were infected with ZIKV (MOI = 1) at 37°C for 2 h. Next, the different amounts of 4w were added to continue culturing for 48 h to extract the total protein in the cells. The total protein was separated in sodium dodecyl sulfate polyacrylamide gel electrophoresis (SDS-PAGE). […] The antibody signal was recorded and quantified using the Tanon-5200 Multi Imaging System.

ZIKV NS5 protein [3] = experiment: Western blot of ZIKV NS5 protein in infected Vero cells; assay type: cell-based; conditions: 12.5 μM, 48 h
From the text: as §1, §2

ZIKV E protein [4] = experiment: Immunofluorescence assay of ZIKV E protein in infected Vero cells; assay type: cell-based, Zika virus; conditions: 25 μM, 72 h
From the text: as §1
Vero cells were seeded at 2 × 10^5 cells/ml in a 24-well plate with cell slides, and 500 μl/well was cultured overnight in a 37°C, 5% CO2 incubator. ZIKV (MOI = 1) was added to infect at 37°C for 2 h, and then discarded the virus. The cells were washed twice with PBS and then added to 500 μl of 4w diluted in concentration gradients. At the same time, virus-only as a positive control and a medium-only as negative control were set. […] Microscopic examinations were performed on a Leica DMI4000B Microsystem (Wetzlar, Germany), and an image was recorded using the system.

[5] = Figure 3; ref Shen (2015); cited from earlier work

T1 sequence (A0A024B7W1 2521-3423): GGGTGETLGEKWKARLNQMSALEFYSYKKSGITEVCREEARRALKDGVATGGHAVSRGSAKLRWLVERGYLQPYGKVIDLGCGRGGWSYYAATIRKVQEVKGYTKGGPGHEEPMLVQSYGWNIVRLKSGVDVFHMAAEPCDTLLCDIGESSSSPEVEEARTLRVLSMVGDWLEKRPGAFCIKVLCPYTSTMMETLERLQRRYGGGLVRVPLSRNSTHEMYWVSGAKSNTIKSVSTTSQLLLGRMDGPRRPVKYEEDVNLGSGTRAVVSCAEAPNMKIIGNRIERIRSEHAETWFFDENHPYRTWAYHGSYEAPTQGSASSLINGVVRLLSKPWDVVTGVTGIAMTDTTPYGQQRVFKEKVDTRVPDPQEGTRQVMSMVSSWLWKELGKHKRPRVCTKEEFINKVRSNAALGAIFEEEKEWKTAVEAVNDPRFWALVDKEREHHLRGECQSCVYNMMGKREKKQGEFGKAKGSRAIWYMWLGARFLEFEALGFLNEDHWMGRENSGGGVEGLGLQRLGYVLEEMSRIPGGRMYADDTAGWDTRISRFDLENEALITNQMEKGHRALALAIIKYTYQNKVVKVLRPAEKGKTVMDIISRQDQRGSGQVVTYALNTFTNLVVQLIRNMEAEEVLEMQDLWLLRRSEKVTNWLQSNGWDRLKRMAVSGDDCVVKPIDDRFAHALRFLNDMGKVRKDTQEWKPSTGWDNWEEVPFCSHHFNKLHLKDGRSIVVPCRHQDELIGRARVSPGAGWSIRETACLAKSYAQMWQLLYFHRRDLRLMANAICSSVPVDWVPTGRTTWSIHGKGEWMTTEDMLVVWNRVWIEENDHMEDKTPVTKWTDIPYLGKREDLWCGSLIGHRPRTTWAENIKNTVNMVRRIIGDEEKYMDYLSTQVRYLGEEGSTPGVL

CCc1c(C2CCCCC2)nc(SCC(=O)Nc2cc(F)cc(F)c2)[nH]c1=O [Compound 4w, 2-{[4-cyclohexyl-5-ethyl-6-oxo-1,6-dihydropyrimidin-2-yl]thio}-N-(3,5-difluorophenyl)acetamide]
apparent aggregation temperature (Tagg) of ZIKV NS5 protein (ZIKV NS5 protein [1]): 49.3 °C
EC50 (ZIKV RNA): 5.18 ± 0.69 µM
inhibition of ZIKV E protein expression (WB) (ZIKV E protein [2]): significantly inhibit
inhibition of ZIKV NS5 protein expression (WB) (ZIKV NS5 protein [3]): significantly inhibit
inhibition of ZIKV E protein expression (immunofluorescence) (ZIKV E protein [4]): completely inhibited
CC50 [5]: > 10 µM
